According to US11110089B2, “Pyridazinones and their use in the treatment of cancer” (THE UNITED STATES OF AMERICA, AS REPRESENTED BY THE …, priority 2015, dated 2021):
pIC50: −log10 of the molar value.

Key:
[1] = target: T1, gluthathione reductase (GR) (Homo sapiens, UniProt P00390); experiment: Inhibition of recombinant GR (GSSG assay); type: biochemical; conditions: 2 nM GR, 250 μM NADPH, 15 minutes incubation, 1 mM GSSG, O.D. at 340 nm
T1 sequence (P00390 44-522): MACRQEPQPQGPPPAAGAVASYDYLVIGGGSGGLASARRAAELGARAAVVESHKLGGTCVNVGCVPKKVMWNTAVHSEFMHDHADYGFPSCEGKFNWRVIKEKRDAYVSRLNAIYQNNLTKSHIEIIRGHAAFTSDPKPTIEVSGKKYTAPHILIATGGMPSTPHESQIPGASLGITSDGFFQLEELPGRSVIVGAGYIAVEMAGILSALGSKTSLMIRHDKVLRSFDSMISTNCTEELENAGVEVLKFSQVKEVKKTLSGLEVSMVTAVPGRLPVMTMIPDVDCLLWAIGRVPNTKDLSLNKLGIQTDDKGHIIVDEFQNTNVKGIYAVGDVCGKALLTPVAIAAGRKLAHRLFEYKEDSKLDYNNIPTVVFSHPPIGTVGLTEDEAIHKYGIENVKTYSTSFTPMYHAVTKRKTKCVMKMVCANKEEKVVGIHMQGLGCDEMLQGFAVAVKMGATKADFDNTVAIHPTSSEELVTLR
Description: (§1) Small molecule inhibition of recombinant thioredoxin reductase 1 (TrxR1) and gluthathione reductase (GR) was examined in 96-well plate format. 15 nM TrxR1 was incubated in the presence of 250 μM NADPH, 0.1 mg/ml BSA, and various concentrations of the compound of Example 1 (1% DMSO final) in 50 mM Tris (pH 7.5) and 2 mM EDTA buffer for 15 minutes. Following the incubation period, 2.5 mM DTNB was added to each well and the change in O.D. at 412 nm was followed. Percent activity was determined using DMSO vehicle and no TrxR1 (blank) controls. 2 nM GR was incubated in the presence of 250 μM NADPH, 0.1 mg/ml BSA, and various concentrations of compounds (1% DMSO final) in 50 mM Tris (pH 7.5) and 2 mM EDTA buffer for 15 minutes. Following the incubation period, 1 mM GSSG was added to each well and the change in O.D. at 340 nm was followed. Percent activity was determined using DMSO vehicle and no GR (blank) controls.

[2] = target: T2, recombinant thioredoxin reductase 1 (TrxR1) (Homo sapiens, UniProt Q16881); experiment: Inhibition of recombinant TrxR1 (DTNB assay); type: biochemical; conditions: 15 nM TrxR1, 250 μM NADPH, 15 minutes incubation, 2.5 mM DTNB, O.D. at 412 nm; read-out: TrxR inhibition
T2 sequence (Q16881 151-649 limits assumed): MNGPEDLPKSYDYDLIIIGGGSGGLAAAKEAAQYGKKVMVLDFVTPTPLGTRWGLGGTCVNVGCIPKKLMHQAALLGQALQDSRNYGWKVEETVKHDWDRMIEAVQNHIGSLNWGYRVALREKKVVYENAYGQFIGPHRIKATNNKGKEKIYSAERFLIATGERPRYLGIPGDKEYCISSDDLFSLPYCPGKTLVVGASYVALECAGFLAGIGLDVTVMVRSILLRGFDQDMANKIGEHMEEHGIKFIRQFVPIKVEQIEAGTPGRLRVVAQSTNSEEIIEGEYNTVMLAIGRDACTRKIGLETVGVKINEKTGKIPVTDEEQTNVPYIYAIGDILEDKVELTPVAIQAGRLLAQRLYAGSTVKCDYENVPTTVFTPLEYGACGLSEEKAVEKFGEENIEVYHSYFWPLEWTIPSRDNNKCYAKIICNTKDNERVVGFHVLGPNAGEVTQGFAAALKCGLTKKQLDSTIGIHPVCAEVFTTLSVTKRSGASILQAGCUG
Description: as §1

pIC50 [1]: < 4.00
pIC50 [2]: 5.73
SMILES: O=c1c(Cl)c(Cl)cnn1Cc1nnc(-c2ccc(Cl)cc2)o1 [Example 1, 4,5-dichloro-2-((5-(4-chlorophenyl)-1,3,4-oxadiazol-2-yl)methyl)pyridazin-3-one]
